Assay results published in PubChem BioAssay AID652230 (The Scripps Research Institute Molecular Screening Center, 2013).
Activity calls are given as the source filed them.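 Rule for the calls: active = IC50 below 10 µM for blocking the phosphatase PP5; inactive = IC50 at or above 10 µM.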

Biological target: Serine/threonine-protein phosphatase 5 (Homo sapiens) (UniProt P53041)
Assay: PP5 inhibitor potency, OMFP dephosphorylation, dose response, selectivity assay for PP1 inhibitor project, biochemical, fluorescence, OMFP substrate, powder samples, set 2 (AID 652230)
Settings: purified PP5c

Sequence of Serine/threonine-protein phosphatase 5 (Homo sapiens) (P53041 whole entry, looked up): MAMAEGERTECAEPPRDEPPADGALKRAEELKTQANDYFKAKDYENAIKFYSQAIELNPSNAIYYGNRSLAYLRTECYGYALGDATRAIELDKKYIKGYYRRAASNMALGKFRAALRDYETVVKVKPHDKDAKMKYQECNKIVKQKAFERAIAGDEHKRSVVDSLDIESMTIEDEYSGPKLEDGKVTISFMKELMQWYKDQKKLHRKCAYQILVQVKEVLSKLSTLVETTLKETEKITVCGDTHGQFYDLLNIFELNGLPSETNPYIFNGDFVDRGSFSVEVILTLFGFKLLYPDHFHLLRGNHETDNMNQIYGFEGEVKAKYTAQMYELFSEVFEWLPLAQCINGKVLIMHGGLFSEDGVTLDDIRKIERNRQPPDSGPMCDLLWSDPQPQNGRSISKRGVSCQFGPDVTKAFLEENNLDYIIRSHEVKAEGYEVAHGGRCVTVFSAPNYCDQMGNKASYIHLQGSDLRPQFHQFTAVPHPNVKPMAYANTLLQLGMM

Structure (SMILES)	IC50
CN1CCN([C@H](c2ncccn2)c2ccc3cccnc3c2O)CC1	inactive
CN1CCN([C@@H](c2ncccn2)c2ccc3cccnc3c2O)CC1	inactive
